Earlier results in patent US20140106008A1, “GLYCEROL COMPOSITIONS AND SOLUTIONS” (BIO-ENERGY INGREDIENTS LIMITED, priority 2011, published 2014).

Tested on: exposed organisms
Conditions: aquatic toxicity

SMILES: OCC(O)CO [Glycerol, propane-1,2,3-triol]
- TLm96 value, concentration that will kill 50% of the exposed organisms in 96 hours: over 1000 mg/litre
